Legend:
SC and TA inputs to CA1 = experiment: Field potential recordings and LTP, acute hippocampal slices of injected mice; type: in vivo, wild-type mice
Description: Electrophysiology. Transverse [for Schaffer collateral (SC) input studies] or horizontal [for temporammonic (TA) input studies] hippocampal slices (400-μm thick) were prepared from adult mice. Slices were made using ice-cold dissection buffer (in mM: 212.7 sucrose, 2.6KCl, 1.23NaH2PO4, 10 dextrose, 3MgCl2 and 1CaCl2; 5% CO2/95% O2), and recordings were done in a submersion-type chamber perfused with artificial cerebrospinal fluid (ACSF, in mM: 124NaCl, 5KCl, 1.25NaH2PO4, 26NaHCO3, 10 dextrose, 1.5MgCl2, and 2.5CaCl2; 5% CO2/95% O2, 29.5-30.5° C., 2 ml/min). For field potential recordings, synaptic responses were evoked using 0.2 ms duration pulses delivered through a bipolar glass stimulating electrode at 0.0333 Hz. A train of TBS consisted of a burst of 4 pulses at 100 Hz repeated 10 times at 5 Hz. For 4× TBS, 4 trains of TBS were given at 10 sec inter-train-intervals. For whole cell recordings, slices were transferred to a submersion-type recording chamber mounted on a fixed stage of an upright microscope (E600 FN; Nikon, Tokyo, Japan) with IR oblique illumination. […]. These neurons were patched using a whole cell patch pipette (tip resistance 3-5 MΩ), which was filled with internal solution (in mM: 120 Cs-methanesulfonate, 5MgCl2, 8NaCl, 1 EGTA, 10 HEPES, 2 Mg.ATP, 0.5Na3GTP and 1 QX-314; pH 7.3, 280-290 mOsm). Recording was initiated 2-3 min after break-in, and each cell was recorded for 10-15 min to collect enough mEPSCs for analysis. The Axon patch-clamp amplifier 700B (Molecular Devices, Union City, Calif.) was used for voltage-clamp recordings. Cells were held at −70 mV, and the recorded mEPSC data were digitized at 10 kHz with a data acquisition board (National Instruments, Austin, Tex.) and acquired through custom-made programs using the Igor Pro software (WaveMetrics, Lake Oswego, Oreg.). The MiniAnalysis program (Synaptosoft, Decatur, Ga.) was used to analyze the acquired mEPSCs. The threshold for detecting mEPSCs was set at three times the root mean square (RMS) noise. […] Recordings were excluded from analysis if the RMS noise was <2, the series resistance was […], and input resistance was >100 MΩ. To minimize the impact of dendritic filtering, we adopted the standard approach of excluding mEPSCs with rise time >3 ms, as well as cells showing a negative correlation between mEPSC amplitude and rise time (Rall, 1969). Only about 4% of the total recorded cells (at most 1 cell per experimental group) were excluded due to negative correlation between mEPSC rise and amplitude. One hundred consecutive mEPSCs that met the rise time criteria were analyzed from each cell. AMPAR- and NMDAR-mediated currents were measured at −70 and +40 mV, respectively. AMPAR mediated EPSC amplitudes were measured at the peak of the current at −70 mV. NMDAR mediated EPSC amplitudes were measured 100 ms after the stimulation artifact. Data are means±SE. Student's t-test was used for two-group comparisons. For all statistical tests, P<0.05 was considered statistically significant.
Therefore, we examined whether improved cognitive performance following BTA-EG4 treatment is associated with altered synaptic function and plasticity. We conducted electrophysiology experiments in an acute hippocampal slice preparation from wild-type mice injected with BTA-EG4 (30 mg/kg, i.p.) or control solution (10% DMSO, i.p) for 2 weeks. […] Long-term potentiation (LTP) was either normal or reduced, depending on the induction protocol (FIGS. 3C-3D). […] There was also not a change in presynaptic function (FIG. 3I).

APP = APP processing in vivo (sAPPα, sAPPβ immunoblot); set-up: species or system wild-type mice; settings: 30 mg/kg i.p., 2 weeks
Description: To test whether BTA-EG4 alters Aβ production in vitro, primary cortical neurons were treated with BTA-EG4 (1 or 5 μM) or control (10% DMSO), and Aβ levels were measured using ELISA. […] We then examined whether BTA-EG4 can alter Aβ levels in vivo by injecting wild-type mice daily for 2 weeks with BTA-EG4 (15 or 30 mg/kg, 10% DMSO in saline, i.p.). […] Furthermore, BTA-EG4 altered APP processing in vivo, as monitored by increased sAPPα (α-secretase cleavage product) and decreased sAPPβ (β-secretase cleavage product) levels in BTA-EG4 injected wild-type mice (30 mg/kg, i.p) compared to control-injected mice (FIGS. 1E, 1F).

[1] = tested on: primary hippocampal neurons; experiment: Synaptic marker immunostaining, primary hippocampal neurons; type: cell-based, Sprague-Dawley rats; settings: 5 μM, 24 h
Description: Primary neuron culture and immunostaining. Primary hippocampal neurons from E19 Sprague-Dawley rats were cultured at 150 cells/mm^2 as previously described (Pak et al., 2001). Neurons were transfected using Lipofectamine™ 2000 (Invitrogen, Carlsbad, Calif., USA) or calcium phosphate precipitation with GFP+PLL, GFP+APP shRNA, or GFP+APP and treated with BTA-EG4. The following antibodies were used: mouse anti-GFP (Novus Biologicals, 9F9.F9), rabbit anti-GFP (Invitrogen, A11122), rabbit anti-GluR1 (Calbiochem, PC246), mouse anti-GluR2 (BD Pharmagen, 556341), mouse anti-postsynaptic density (PSD)-95 (NeuroMabs, Davis, Calif., USA), mouse anti-Synaptophysin (Sigma Aldrich, s5768), rabbit APP N-terminal (Sigma-Aldrich, A8967), anti-Ras (BD Biosciences, 610001), anti-RasGRF1 (Santa Cruz, C-20; BD Biosciences, 610149), anti-ERK1/2 (Cell Signaling, 4695), anti-p-ERK1/2 (Invitrogen, 36880), anti-CREB (Cell Signaling, D76D11), anti-p-CREB (Millipore, 06-519), and mouse anti-c-Myc (Novus Biologicals, 9E10). Cultured hippocampal neuron images were acquired by LSM 510 laser scanning confocal microscope (Zeiss). Confocal zseries image stacks encompassing entire dendrite segments were analyzed using MetaMorph software (Universal Imaging Corporation, Downington, Pa., USA). […]

[2] = SC inputs to CA1, 30 mg/kg i.p., 2 weeks

For BTA-EG4, the “summation of synaptic responses during the LTP induction protocol” value (SC and TA inputs to CA1; SC inputs to CA1) was “reduced”, the “magnitude of LTP” value (SC and TA inputs to CA1; SC inputs to CA1, induced by 1× TBS) was “No difference” and the “magnitude of LTP” value (SC and TA inputs to CA1; SC inputs to CA1, induced by 4× TBS) was “reduction”. For the same substance, the basal synaptic transmission (SC and TA inputs to CA1; [2]) was “did not alter”, the presynaptic function (SC and TA inputs to CA1; [2]) was “did not alter” and the presynaptic function (SC and TA inputs to CA1; TA inputs to CA1) was “not a change”. For the same substance, the “response summation during the induction protocol” value (SC and TA inputs to CA1; TA inputs to CA1) was “absence of a change”, the “synaptic transmission normalized to presynaptic fiber volley amplitude” value (SC and TA inputs to CA1; TA inputs to CA1) was “no difference” and the TA-LTP (SC and TA inputs to CA1; TA inputs to CA1, at 1 h post-LTP, CTRL 120±2.1%) was 109±1.2%. For the same substance, the “ability to recruit presynaptic axons per stimulation intensity” value (SC and TA inputs to CA1; TA inputs to CA1, 30 mg/kg i.p.) was “reduced”, the sAPPα levels (APP) was “increased” and the sAPPβ levels (APP) was “decreased”. The “number of puncta stained for PSD-95” value [1] was “increased” and the “number of puncta stained for synaptophysin” value [1] was “increased”.

Source: patent US20160000762A1, “IMPROVING COGNITIVE FUNCTION” (THE REGENTS OF THE UNIVERSITY OF CALIFORNIA, priority 2013, published 2016)
